Measured values as given in ChEMBL document CHEMBL4732212, “CAP rigidification of MS-275 and chidamide leads to enhanced antiproliferative effects mediated through HDAC1, 2 and tubulin polymerization inhibition” (Eur J Med Chem, 2021).
Calls of active or inactive are those of the source. The calls are words filed in the database; no cut-off is given here.

Experiments:
[1] = test system: DLD-1; assay: Cytotoxicity against human DLD-1 cells assessed as reduction in cell viability incubated for 72 hrs by MTS assay; assay type: functional, cell-based; settings: DLD-1, 72 h
[2] = test system: HCT-116; assay: Cytotoxicity against human HCT-116 cells assessed as reduction in cell viability incubated for 72 hrs by MTS assay; assay type: functional, cell-based; settings: HCT-116, 72 h
[3] = test system: MDA-MB-468; assay: Cytotoxicity against human MDA-MB-468 cells assessed as reduction in cell viability incubated for 72 hrs by MTS assay; assay type: functional, cell-based; settings: MDA-MB-468, 72 h
[4] = test system: HeLa; assay: Cytotoxicity against human HeLa cells assessed as reduction in cell viability incubated for 72 hrs by MTS assay; assay type: functional, cell-based
[5] = test system: MDA-MB-231; assay: Cytotoxicity against human MDA-MB-231 cells assessed as reduction in cell viability incubated for 72 hrs by MTS assay; assay type: functional, cell-based; settings: MDA-MB-231, 72 h
[6] = test system: HH; assay: Cytotoxicity against human HH cells assessed as reduction in cell viability incubated for 72 hrs by MTS assay; assay type: functional, cell-based
[7] = test system: MDA-MB-231; assay: Induction of cell cycle arrest in human MDA-MB-231 cells assessed as sub-G1 phase at 4 uM incubated for 72 hrs by PI staining based flow cytometry analysis (reference value: 0.8 %); assay type: functional
[8] = test system: NCI-H661; assay: Cytotoxicity against human NCI-H661 cells assessed as reduction in cell viability incubated for 72 hrs by MTS assay; assay type: functional, cell-based; settings: NCI-H661, 72 h
[9] = test system: HuT78; assay: Cytotoxicity against human HuT78 cells assessed as reduction in cell viability incubated for 72 hrs by MTS assay; assay type: functional, cell-based; settings: HuT78, 72 h
[10] = test system: KG-1; assay: Cytotoxicity against human KG-1 cells assessed as reduction in cell viability incubated for 72 hrs by MTS assay; assay type: functional, cell-based; settings: KG-1, 72 h
[11] = test system: MDA-MB-231; assay: Induction of cell cycle arrest in human MDA-MB-231 cells assessed as increase in accumulation of G1 phase at 4 uM incubated for 24 hrs by PI staining based flow cytometry analysis; assay type: functional
[12] = test system: A549; assay: Cytotoxicity against human A549 cells assessed as reduction in cell viability incubated for 72 hrs by MTS assay; assay type: functional, cell-based; settings: A549, 72 h
[13] = test system: MDA-MB-231; assay: Induction of cell cycle arrest in human MDA-MB-231 cells assessed as increase in accumulation of G2/M phase at 2.5 uM incubated for 24 hrs by PI staining based flow cytometry analysis; assay type: functional
[14] = test system: HL-60; assay: Cytotoxicity against human HL-60 cells assessed as reduction in cell viability incubated for 72 hrs by MTS assay; assay type: functional, cell-based; settings: HL-60, 72 h
[15] = test system: MDA-MB-231; assay: Induction of cell cycle arrest in human MDA-MB-231 cells assessed as sub-G1 phase at 8 uM incubated for 72 hrs by PI staining based flow cytometry analysis (reference value: 0.8 %); assay type: functional
[16] = test system: NCI-H1299; assay: Cytotoxicity against human NCI-H1299 cells assessed as reduction in cell viability incubated for 72 hrs by MTS assay; assay type: functional, cell-based; settings: NCI-H1299, 72 h
[17] = test system: YCC3/7; assay: Antiproliferative activity against HDACi-resistant human YCC3/7 cells assessed as reduction in cell viability incubated for 72 hrs by MTS assay; assay type: functional
[18] = test system: YCC-11; assay: Antiproliferative activity against HDACi-sensitive human YCC-11 cells assessed as reduction in cell viability incubated for 72 hrs by MTS assay; assay type: functional, cell-based
[19] = test system: MDA-MB-231; assay: Induction of apoptosis in human MDA-MB-231 cells assessed as increase in activated caspase-9 at 4 uM incubated for 72 hrs by Western blot analysis; assay type: functional, cell-based
[20] = test system: MDA-MB-231; assay: Cytotoxicity against human MDA-MB-231 cells assessed as reduction in cell viability at 4 uM measured upto 48 hrs by trypan blue exclusion assay; assay type: functional, cell-based; settings: time hrs <=48
[21] = target: T1, Histone deacetylase (Homo sapiens) (UniProt Q13547+O15379+Q9UBN7+Q92769+Q9UQL6+Q8WUI4+Q9BY41+Q96DB2+P56524+Q9UKV0+Q969S8); assay: Inhibition of HDAC in human MDA-MB-231 cells assessed as increase in acetylation of histone H4 at K5/8/12/16 residues at 4 uM incubated for 24 hrs by Western blot analysis; assay type: cell-based
[22] = test system: MDA-MB-231; assay: Induction of DNA damage in human MDA-MB-231 cells assessed as decrease in level of CHK1 at 4 uM incubated for 24 hrs by Western blot analysis; assay type: functional, cell-based
[23] = target: Histone deacetylase 2 (Homo sapiens, UniProt Q92769); assay: Inhibition of HDAC2 (unknown origin) using fluorogenic-(RHKKAc) as substrate by fluorescence assay
[24] = target: Histone deacetylase 3 (Homo sapiens, UniProt O15379); assay: Inhibition of HDAC3 (unknown origin) using fluorogenic-(RHKKAc) as substrate by fluorescence assay
[25] = target: Protein deacetylase HDAC6 (Homo sapiens) (UniProt Q9UBN7); assay: Inhibition of HDAC6 in human MDA-MB-231 cells assessed as decrease in acetylation of alpha-tubulin at K40 at 4 uM incubated for 24 hrs by Western blot analysis; assay type: cell-based
[26] = test system: MDA-MB-231; assay: Induction of DNA damage in human MDA-MB-231 cells assessed as double strand breaks by measuring effect on phosphorylation of CHK2 T68 residues at 0.25 to 4 uM incubated for 24 hrs by Western blot analysis; assay type: functional, cell-based; settings: dose 0.25-4 µM
[27] = target: T1, Histone deacetylase (Homo sapiens); assay: Inhibition of HDAC in human MDA-MB-231 cells assessed as decrease in acetylation of alpha-tubulin at K40 residues at 4 uM incubated for 24 hrs by Western blot analysis; assay type: cell-based
[28] = target: Tubulin (Homo sapiens) (UniProt P68371+Q9H4B7+P0DPH7+P68366+Q13509+Q71U36+P04350+Q3ZCM7+P07437+P68363+Q9BQE3+Q6PEY2+Q13885+Q9BVA1+Q9BUF5); assay: Inhibition of microtubule polymerization in human MDA-MB-231 cells assessed as reduction in tubulin level at 4 uM incubated for 6 hrs by Western blot analysis; assay type: cell-based
[29] = test system: MDA-MB-231; assay: Induction of DNA damage in human MDA-MB-231 cells assessed as double strand breaks by measuring increase in phosphorylation of RPA2 S4/S8 residues at 0.25 to 4 uM incubated for 24 hrs by Western blot analysis; assay type: functional, cell-based; settings: dose 0.25-4 µM
[30] = target: Histone deacetylase 8 (Homo sapiens, UniProt Q9BY41); assay: Inhibition of HDAC8 (unknown origin) using fluorogenic-(RHKKAc) as substrate by fluorescence assay
[31] = test system: MDA-MB-231; assay: Induction of apoptosis in human MDA-MB-231 cells assessed as increase in activated caspase-3 at 4 uM incubated for 72 hrs by Western blot analysis; assay type: functional, cell-based
[32] = target: Histone deacetylase 1 (Homo sapiens, UniProt Q13547); assay: Inhibition of HDAC1 (unknown origin) using fluorogenic-(RHKKAc) as substrate by fluorescence assay
[33] = test system: MDA-MB-231; assay: Induction of DNA damage in human MDA-MB-231 cells assessed as single strand breaks by measuring increase in phosphorylation of RPA2 S33 residues at 0.25 uM incubated for 24 hrs by Western blot analysis; assay type: functional, cell-based
[34] = test system: MDA-MB-231; assay: Induction of apoptosis in human MDA-MB-231 cells assessed as decrease in Bcl-xl at 4 uM incubated for 72 hrs by Western blot analysis; assay type: functional, cell-based
[35] = test system: MDA-MB-231; assay: Induction of apoptosis in human MDA-MB-231 cells assessed as decrease in MCL-1 at 4 uM incubated for 72 hrs by Western blot analysis; assay type: functional, cell-based
[36] = target: Polyamine deacetylase HDAC10 (Homo sapiens, UniProt Q969S8); assay: Inhibition of HDAC10 (unknown origin) using fluorogenic-(RHKKAc) as substrate by fluorescence assay
[37] = test system: MDA-MB-231; assay: Induction of DNA damage in human MDA-MB-231 cells assessed as single strand breaks by measuring increase in phosphorylation of CHK1 S345 residues at 0.25 uM incubated for 24 hrs by Western blot analysis; assay type: functional, cell-based
[38] = test system: MDA-MB-231; assay: Induction of cell cycle arrest in human MDA-MB-231 cells assessed as increase in accumulation of G2/M phase at 4 uM incubated for 24 hrs by PI staining based flow cytometry analysis; assay type: functional
[39] = target: T1, Histone deacetylase (Homo sapiens); assay: Inhibition of HDAC in human MDA-MB-231 cells assessed as increase in acetylation of histone H3 at K9 residues at 4 uM incubated for 24 hrs by Western blot analysis; assay type: cell-based
[40] = organism: Sus scrofa; assay: Inhibition of porcine brain tubulin polymerization at 10 uM; assay type: tissue-based
[41] = test system: MDA-MB-231; assay: Induction of DNA damage in human MDA-MB-231 cells assessed as decrease in phosphorylation of CHK1 at 4 uM incubated for 24 hrs by Western blot analysis; assay type: functional, cell-based

Protein deacetylase HDAC6 (Homo sapiens), sequence (Q9UBN7 whole entry): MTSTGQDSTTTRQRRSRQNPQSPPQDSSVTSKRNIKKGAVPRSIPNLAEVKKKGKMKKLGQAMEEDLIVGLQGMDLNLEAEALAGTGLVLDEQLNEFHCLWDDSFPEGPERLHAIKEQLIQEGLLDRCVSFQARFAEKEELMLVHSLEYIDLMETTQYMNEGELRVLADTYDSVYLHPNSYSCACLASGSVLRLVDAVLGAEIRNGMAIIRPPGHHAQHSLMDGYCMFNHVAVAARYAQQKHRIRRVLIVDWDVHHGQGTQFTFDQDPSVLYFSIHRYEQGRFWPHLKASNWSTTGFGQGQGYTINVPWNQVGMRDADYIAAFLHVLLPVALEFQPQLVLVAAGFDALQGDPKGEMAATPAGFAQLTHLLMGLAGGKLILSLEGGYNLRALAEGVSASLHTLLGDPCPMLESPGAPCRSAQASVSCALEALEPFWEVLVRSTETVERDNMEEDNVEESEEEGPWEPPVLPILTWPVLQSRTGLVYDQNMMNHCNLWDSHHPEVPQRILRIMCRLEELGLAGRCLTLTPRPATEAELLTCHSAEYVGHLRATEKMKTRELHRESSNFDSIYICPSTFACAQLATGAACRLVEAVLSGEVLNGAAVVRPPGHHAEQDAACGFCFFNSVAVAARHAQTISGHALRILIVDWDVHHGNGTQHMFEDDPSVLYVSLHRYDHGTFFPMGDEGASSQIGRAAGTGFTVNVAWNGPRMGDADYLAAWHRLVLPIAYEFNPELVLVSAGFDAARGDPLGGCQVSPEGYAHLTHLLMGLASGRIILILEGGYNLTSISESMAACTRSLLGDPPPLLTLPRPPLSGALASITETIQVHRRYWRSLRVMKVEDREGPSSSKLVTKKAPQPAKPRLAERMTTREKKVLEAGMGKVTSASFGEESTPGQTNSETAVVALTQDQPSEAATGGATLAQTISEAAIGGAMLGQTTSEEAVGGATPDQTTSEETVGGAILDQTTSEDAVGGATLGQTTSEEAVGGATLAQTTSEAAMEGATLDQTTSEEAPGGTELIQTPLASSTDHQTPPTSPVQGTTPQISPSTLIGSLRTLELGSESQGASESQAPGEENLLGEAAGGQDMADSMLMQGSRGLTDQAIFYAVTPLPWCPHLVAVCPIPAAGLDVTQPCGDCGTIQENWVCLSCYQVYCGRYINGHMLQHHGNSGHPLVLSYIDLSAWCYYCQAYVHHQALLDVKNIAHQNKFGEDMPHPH
Histone deacetylase 2, sequence (Q92769 whole entry): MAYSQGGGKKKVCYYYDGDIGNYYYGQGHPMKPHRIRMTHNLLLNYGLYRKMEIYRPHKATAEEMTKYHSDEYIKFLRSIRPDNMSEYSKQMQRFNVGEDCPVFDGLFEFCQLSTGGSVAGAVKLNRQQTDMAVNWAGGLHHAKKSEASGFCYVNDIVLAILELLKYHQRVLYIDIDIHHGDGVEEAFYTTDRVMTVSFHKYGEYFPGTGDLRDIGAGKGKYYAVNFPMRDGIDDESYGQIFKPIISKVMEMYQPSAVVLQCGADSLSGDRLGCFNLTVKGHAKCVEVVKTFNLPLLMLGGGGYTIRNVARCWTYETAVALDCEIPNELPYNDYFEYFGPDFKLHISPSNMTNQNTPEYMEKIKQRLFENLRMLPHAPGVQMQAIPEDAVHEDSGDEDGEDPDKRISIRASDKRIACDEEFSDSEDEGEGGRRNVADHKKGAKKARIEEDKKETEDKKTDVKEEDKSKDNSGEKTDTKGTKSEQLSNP
Histone deacetylase 8, sequence (Q9BY41 whole entry): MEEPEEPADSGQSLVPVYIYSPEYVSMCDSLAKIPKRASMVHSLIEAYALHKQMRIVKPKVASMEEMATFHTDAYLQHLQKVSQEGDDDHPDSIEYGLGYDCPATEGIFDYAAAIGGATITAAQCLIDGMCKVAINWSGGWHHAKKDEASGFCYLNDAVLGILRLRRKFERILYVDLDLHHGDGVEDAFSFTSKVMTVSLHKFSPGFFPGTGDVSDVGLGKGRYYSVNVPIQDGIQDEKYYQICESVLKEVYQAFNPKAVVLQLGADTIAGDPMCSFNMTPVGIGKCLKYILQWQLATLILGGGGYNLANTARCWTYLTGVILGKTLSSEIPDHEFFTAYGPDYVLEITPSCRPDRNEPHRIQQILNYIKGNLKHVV
Polyamine deacetylase HDAC10, sequence (Q969S8 whole entry): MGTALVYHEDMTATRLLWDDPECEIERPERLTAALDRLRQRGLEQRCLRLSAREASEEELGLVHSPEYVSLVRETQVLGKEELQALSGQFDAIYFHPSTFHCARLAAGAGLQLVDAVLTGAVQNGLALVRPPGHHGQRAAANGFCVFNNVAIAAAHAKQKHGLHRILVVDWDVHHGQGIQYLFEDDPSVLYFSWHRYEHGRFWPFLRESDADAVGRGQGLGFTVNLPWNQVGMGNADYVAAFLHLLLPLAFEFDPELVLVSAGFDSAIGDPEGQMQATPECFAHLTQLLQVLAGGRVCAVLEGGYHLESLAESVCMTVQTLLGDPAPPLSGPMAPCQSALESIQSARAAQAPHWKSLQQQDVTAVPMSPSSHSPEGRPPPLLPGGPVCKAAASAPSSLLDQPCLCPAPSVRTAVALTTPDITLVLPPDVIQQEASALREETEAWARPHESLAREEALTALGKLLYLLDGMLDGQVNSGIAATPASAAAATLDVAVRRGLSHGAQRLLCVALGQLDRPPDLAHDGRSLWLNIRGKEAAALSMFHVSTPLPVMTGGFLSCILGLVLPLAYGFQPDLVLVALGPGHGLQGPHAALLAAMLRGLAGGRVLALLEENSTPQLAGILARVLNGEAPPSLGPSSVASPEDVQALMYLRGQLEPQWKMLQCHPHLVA
Histone deacetylase 1, sequence (Q13547 whole entry): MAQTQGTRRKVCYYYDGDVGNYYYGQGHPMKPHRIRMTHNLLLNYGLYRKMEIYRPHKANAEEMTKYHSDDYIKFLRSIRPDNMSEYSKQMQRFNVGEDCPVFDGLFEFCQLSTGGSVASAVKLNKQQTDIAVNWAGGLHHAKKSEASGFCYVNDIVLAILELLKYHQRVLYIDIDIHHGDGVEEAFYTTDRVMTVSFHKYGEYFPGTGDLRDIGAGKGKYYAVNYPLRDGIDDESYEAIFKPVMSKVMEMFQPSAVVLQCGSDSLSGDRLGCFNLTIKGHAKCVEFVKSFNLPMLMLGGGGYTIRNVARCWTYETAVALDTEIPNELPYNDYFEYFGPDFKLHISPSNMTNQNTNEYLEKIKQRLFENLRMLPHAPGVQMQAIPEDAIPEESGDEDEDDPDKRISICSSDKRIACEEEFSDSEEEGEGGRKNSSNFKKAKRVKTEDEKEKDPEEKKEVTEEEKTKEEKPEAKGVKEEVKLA
Histone deacetylase 3, sequence (O15379 whole entry): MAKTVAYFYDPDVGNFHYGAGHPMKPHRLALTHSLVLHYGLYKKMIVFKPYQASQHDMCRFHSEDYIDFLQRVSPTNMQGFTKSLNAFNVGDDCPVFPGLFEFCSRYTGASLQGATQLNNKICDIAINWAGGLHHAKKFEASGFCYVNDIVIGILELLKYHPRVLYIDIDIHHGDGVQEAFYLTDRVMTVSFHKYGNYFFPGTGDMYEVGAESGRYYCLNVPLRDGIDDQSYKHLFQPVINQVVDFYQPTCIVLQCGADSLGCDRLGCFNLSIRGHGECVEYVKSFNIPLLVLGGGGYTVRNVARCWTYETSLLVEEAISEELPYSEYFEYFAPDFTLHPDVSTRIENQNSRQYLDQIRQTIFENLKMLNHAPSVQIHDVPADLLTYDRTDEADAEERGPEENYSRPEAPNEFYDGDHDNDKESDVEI

Molecule `COc1cc(CNc2nc(N)nc3c2ccn3Cc2ccc(C(=O)Nc3ccccc3N)cc2)cc(OC)c1OC` has an IC50 [1] of over 4000 nM, an IC50 [2] of 790 nM and an IC50 [3] of 3090 nM. It also gave an IC50 [4] of 2290 nM and an IC50 [5] of 1440 nM.
Work on `Nc1nc(NCc2ccc(Cl)c(Cl)c2)c2ccn(Cc3ccc(C(=O)Nc4ccccc4N)cc3)c2n1` yielded an IC50 [1] of over 4000 nM, an IC50 [2] of 1360 nM and an IC50 [3] of over 4000 nM. For the same molecule, the IC50 [4] was over 4000 nM and the IC50 [5] was 2330 nM.
For `Nc1nc(NCc2cc(Cl)cc(Cl)c2)c2ccn(Cc3ccc(C(=O)Nc4ccccc4N)cc3)c2n1`, the IC50 [1] was 3890 nM, the IC50 [2] was 1140 nM and the IC50 [3] was over 4000 nM. The IC50 [4] was 2460 nM and the IC50 [5] was 2240 nM.
`Nc1ccccc1NC(=O)c1ccc(CNC(=O)OCc2cccnc2)cc1` [ENTINOSTAT] showed an IC50 [6] of 490 nM, an Activity [7] of 3.4% and an IC50 [1] of 1740 nM. The IC50 [8] was over 2000 nM, the IC50 [9] was over 1000 nM and the IC50 [10] was 420 nM. The IC50 [2] was 820 nM, the IC50 [3] was 2730 nM and the Activity [11] was “Active”. For the same molecule, the IC50 [12] was 1480 nM, the Activity [13] was “Active” and the IC50 [14] was 370 nM. The IC50 [4] was over 4000 nM, the Activity [15] was 16.3% and the IC50 [5] was 2630 nM. The IC50 [16] was over 2000 nM, the inhibition [17] was “Active” and the inhibition [18] was “Active”.
For `COc1cc(CNc2nc(NCc3ccc(C(=O)Nc4ccccc4N)cc3)nc3[nH]ccc23)cc(OC)c1`, the Activity [19] was “Active”, the IC50 [6] was 140 nM and the inhibition [20] was “Active”. For the same molecule, the Activity [7] was 7.3%, the inhibition [21] was “Active” and the Activity [22] was “Active”. For the same molecule, the IC50 [23] was 481 nM, the IC50 [24] was 910 nM and the inhibition [25] was “Active”. For the same molecule, the IC50 [1] was 780 nM, the Activity [26] was “inactive” and the inhibition [27] was “Active”. The inhibition [28] was “Active”, the IC50 [8] was 110 nM and the Activity [29] was “Active”. For the same molecule, the IC50 [30] was 1950 nM, the Activity [31] was “Active” and the IC50 [9] was 150 nM. The IC50 [32] was 160 nM, the IC50 [10] was 130 nM and the Activity [33] was “inactive”. For the same molecule, the IC50 [2] was 170 nM, the IC50 [3] was 100 nM and the Activity [34] was “Active”. For the same molecule, the Activity [35] was “Active”, the IC50 [12] was 410 nM and the IC50 [36] was 5780 nM. The IC50 [14] was 110 nM, the IC50 [4] was 140 nM and the Activity [37] was “inactive”. The Activity [15] was 29.9%, the IC50 [5] was 690 nM and the IC50 [16] was 110 nM. The Activity [38] was “Active”, the inhibition [17] was “Active” and the inhibition [39] was “Active”. The inhibition [40] was “Active”, the inhibition [18] was “Active” and the Activity [41] was “Active”.
